One assay addresses Rho-A (Homo sapiens (Human), UniProt P61586). Briefly: Rho inhibition assay (labeled GTP). The class given is binding. The conditions noted are these: read-out: Rho-A % Inh.
The next assay deals with Rac-1 (Homo sapiens (Human), UniProt P63000). Nature of the assay: Rac inhibition assay (labeled GTP). The class given is binding. To be noted: read-out: Rac-1 % Inh.
Assay [1] deals with KRas G12D/Q61H double mutant (Homo sapiens (Human), UniProt P01116, G12D/Q61H). Nature of the assay: Ras GTP binding domain inhibition assay (labeled GTP). To be noted: at 20 μM; read-out: KRas G12D Q61H % Inh. In outline:
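Inhibition of labeled GTP binding is measured on immobilized His-KRas protein in Tris buffer pH 7.5 with 1 mM MgCl2 and 1 mM DTT.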

In a further assay the target is KRas G12D mutant protein (Homo sapiens (Human), UniProt P01116, G12D). The description is as above. The conditions noted are these: at 20 μM; read-out: KRas G12D % Inh. As to the method: The following method was developed as specific assay for KRas G12D mutant protein.
KRas G12D mutant protein, sequence (P01116-2 other isoform, or with tags, fused parts or gaps G12D): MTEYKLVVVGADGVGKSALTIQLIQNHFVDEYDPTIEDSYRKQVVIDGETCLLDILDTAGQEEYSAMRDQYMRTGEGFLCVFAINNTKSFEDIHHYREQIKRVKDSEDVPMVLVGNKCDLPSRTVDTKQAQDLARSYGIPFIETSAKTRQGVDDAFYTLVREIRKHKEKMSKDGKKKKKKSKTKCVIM
Buffer-I: • 50 mM Tris, pH 7.5 • 150 mM NaCl (optional) • 1 mM MgCl2 • 1 mM DTT. • KRas G12D mutant protein was expressed as a His-tagged protein. Purified His-KRas G12D protein was diluted in buffer-I to a final concentration of 3-10 μg/ml. • 200 μl of the diluted His-KRas G12D protein was added to a nickel coated 96 well plate and incubated overnight at 4° C. • The next day, wells were washed 3× in 200 μl of Buffer-I. • Then 200 μl of Buffer-I were added to each well in the presence of 1% DMSO. • Tested compounds were added to the protein-coated wells at a concentration of 20 μM, and incubated for 3 hours at room temperature. While performing IC50 measurements a serial dilution of all tested concentrations was prepared.
Then 22 μl of Cy3-GTP or Cy5-GTP was added to each well. The labeled GTP was incubated for 45 min. at room temperature. • Following GTP incubation, wells were washed 3× in Buffer-I, and 200 μl of Buffer-I were added to each well. • Following washes, the amount of bound labeled-GTP was measured with an Eppendorf AF2200 plate reader.

Assay [2] relates to MAPK phosphorylation in PANC-1 pancreatic cancer cell line. Nature of the assay: MAPK cell-based phosphorylation assay (cell-direct ELISA, EGF stimulation). To be noted: Homo sapiens. In outline:
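Cell-direct ELISA measured phospho-MAPK, with fluorescence read at 595 nm from AmpliFlu Red. Before fixation, PANC-1 cells starved overnight received 6 hours of compound (30 μM single dose or serial dilutions, 0.3% DMSO, 37° C), followed by 1.5 ng/ml EGF for 15 min.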
A general note: In an ELISA, binding on a coated surface is turned into a signal by an enzyme label.

The structures appear in SMILES notation.

Rho-A, sequence (P61586 whole entry): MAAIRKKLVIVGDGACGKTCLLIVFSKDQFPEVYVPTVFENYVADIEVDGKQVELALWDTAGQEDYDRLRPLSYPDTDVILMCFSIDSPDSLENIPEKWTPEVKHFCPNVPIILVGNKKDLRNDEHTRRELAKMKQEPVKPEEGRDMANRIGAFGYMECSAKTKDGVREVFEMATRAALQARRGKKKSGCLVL
KRas G12D/Q61H double mutant, sequence (P01116-2 other isoform, or with tags, fused parts or gaps G12D/Q61H): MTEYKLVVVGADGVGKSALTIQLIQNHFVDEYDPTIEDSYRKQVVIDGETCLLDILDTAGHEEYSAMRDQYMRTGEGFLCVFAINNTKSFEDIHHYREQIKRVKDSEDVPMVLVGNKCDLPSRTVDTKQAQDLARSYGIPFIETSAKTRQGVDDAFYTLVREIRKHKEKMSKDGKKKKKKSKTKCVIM

Turning to `Cc1ccc(-c2csc3c(O)nc(-c4ccccn4)nc23)cc1` [drawing 3878], the results for the inhibition at 20 µM (at Rho-A; on Rac-1; in assay [1]) were 25 to 50%, 0% and 1 to 25%, respectively.

For the molecule `Nc1nc(-c2ccccn2)nc2scc(Br)c12` [drawing 3766], the inhibition at 20 µM on Rho-A was in the range of 51 to 75%; on Rac-1, 51 to 75%; in assay [1] it was 25 to 50%.

For the molecule `O=C(NCCc1ccnc(O)n1)c1csc2nc(-c3ccccn3)nc(N3CCOCC3)c12` [drawing 3770], the inhibition at 20 µM on Rho-A lay in the range of 51 to 75%; at Rac-1, 51 to 75%; in assay [1] it was 1 to 25%.

Turning to `NC(=O)C1CCCN1C(=O)c1cccc(-c2cc3nc(N)nc(O)c3s2)c1` (stereo not shown) [drawing 3862], the inhibition at 20 µM (on Rho-A; at Rac-1; in assay [1]) was 0% each time.

On to `COc1cnc(CN)[nH]c1=O` [drawing 3690], for which the inhibition at 20 µM (at Rho-A; at Rac-1; in assay [1]) was 25 to 50% each time.

As for `COc1nc(-c2ccccn2)nc(Oc2cccc(C(F)(F)F)c2)c1OC` [drawing 3870], the inhibition at 20 µM on Rho-A is 0%; on Rac-1, 1 to 25%; in assay [1] it was 1 to 25%.

With `Oc1nc(-c2ccccn2)nc2c(-c3ccccc3)csc12` [drawing 3625], the inhibition at 20 µM was 51 to 75% at Rho-A, 51 to 75% on Rac-1 and 25 to 50% in assay [1].

For `Nc1nc(-c2ccccn2)nc2c(-c3ccccc3Cl)csc12` [drawing 3707], the inhibition at 20 µM lay within 25 to 50% at Rho-A, 25 to 50% at Rac-1 and 1 to 25% in assay [1].

For `Oc1nc(-c2ccccn2)nc2c(-c3cncnc3)csc12` [drawing 3823], the inhibition at 20 µM (on Rho-A; on Rac-1; in assay [1]) was 1 to 25% in each case.

`CCn1nc(C)cc1-c1csc2c(O)nc(-c3ccccn3)nc12` [drawing 3775]: the inhibition at 20 µM on Rho-A was 76 to 100%; on Rac-1 it was 51 to 75%; in assay [1], 51 to 75%.

As to `COc1cccc(CC2CN(C(=O)c3csc4c(O)nc(-c5ccccn5)nc34)CCN2)c1` (stereo not shown) [drawing 3702], the values for the inhibition at 20 µM (at Rho-A; on Rac-1; in assay [1]) were 51 to 75%, 76 to 100% and 51 to 75%, respectively.

For `CC(C)(C(=O)Nc1ccnc(-c2ccccn2)n1)c1ccc(C#N)cc1` [drawing 3640], the inhibition at 20 µM at Rho-A lay in the range of 25 to 50%; on Rac-1, 51 to 75%; in assay [1], 1 to 25%.

Turning to `CC(C)(C)c1ccc(-c2csc3c(O)nc(-c4ccccn4)nc23)cc1` [drawing 3719], the inhibition at 20 µM (on Rho-A; on Rac-1; in assay [1]) was 51 to 75% in each case.

For the molecule `Oc1nc(-c2ccccn2)nc2c(C3CC3)csc12` [drawing 3836], the inhibition at 20 µM lay in the range of 51 to 75% on Rac-1, 51 to 75% on KRas G12D mutant protein and 25 to 50% in assay [1].

Take `Cc1sc2c(N)nc(-c3ccccn3)nc2c1Br` [drawing 3765]: the inhibition at 20 µM (on Rho-A; at Rac-1; in assay [1]) was 25 to 50% throughout.

For the molecule `COc1ccc(N2CCN(C(=O)c3csc4c(O)nc(-c5ccccn5)nc34)CC2)c(OC)c1` [drawing 3648], the values for the inhibition at 20 µM (on Rho-A; at Rac-1; in assay [1]) were 51 to 75%, 76 to 100% and 25 to 50%, respectively.

On to `Cc1c(-c2csc3c(O)nc(-c4ccccn4)nc23)cnn1C` [drawing 3824], for which the figures for the inhibition at 20 µM (on Rho-A; on Rac-1; in assay [1]) were 76 to 100%, 76 to 100% and 51 to 75%, respectively.

On to `COC(=O)c1csc2nc(-c3ccccn3)nc(N)c12` [drawing 3767], for which the figures for the inhibition at 20 µM (on Rho-A; at Rac-1; in assay [1]) were 51 to 75%, 51 to 75% and 25 to 50%, respectively.

As to `Oc1nc(-c2ccccn2)nc2c(-c3ccccc3C(F)F)csc12` [drawing 3755], the inhibition at 20 µM (at KRas G12D mutant protein; in assay [1]) was 51 to 75% in each case.

On to `CCC(C)c1csc2c(OC)nc(-c3ccccn3)nc12` (stereo not shown) [drawing 3790], for which the inhibition at 20 µM was 51 to 75% at Rho-A, 25 to 50% on KRas G12D mutant protein and 51 to 75% in assay [1].

Regarding `COc1cc(-c2csc3c(O)nc(-c4ccccn4)nc23)cnc1C(F)(F)F` [drawing 3756], the inhibition at 20 µM (at Rac-1; on KRas G12D mutant protein; in assay [1]) was 51 to 75% each time.

`COCc1ccc(-c2csc3c(O)nc(-c4ccccn4)nc23)cc1F` [drawing 3718]: the values for the inhibition at 20 µM (at Rho-A; on KRas G12D mutant protein; in assay [1]) were 76 to 100%, 51 to 75% and 51 to 75%, respectively.

With `Oc1nc(-c2ccccn2)nc2c(-c3ccc4c(c3)CCCO4)csc12` [drawing 3774], the values for the inhibition at 20 µM (at Rac-1; at KRas G12D mutant protein; in assay [1]) were 25 to 50%, 51 to 75% and 25 to 50%, respectively.

As to `O=C(c1csc2c(O)nc(-c3ccccn3)nc12)N1CCNC(c2cn[nH]c2)C1` (stereo not shown) [drawing 3730], the inhibition at 20 µM on Rho-A lay within 76 to 100%; on KRas G12D mutant protein, 25 to 50%; in assay [1], 51 to 75%.

With `CN(C)Cc1ccc(-c2csc3c(O)nc(-c4ccccn4)nc23)cc1F` [drawing 3717], the inhibition at 20 µM (on KRas G12D mutant protein; in assay [1]) was 76 to 100% throughout.

On to `COCCNc1nc(-c2nccn2C)nc2sc(-c3ccccc3)c(-c3ccccc3)c12` [drawing 3853], for which the inhibition at 20 µM on KRas G12D mutant protein was 76 to 100%; in assay [1], 51 to 75%.

Regarding `O=C(c1csc2c(O)nc(-c3ccccn3)nc12)N1CCNC(c2ccc(O)cc2)C1` (stereo not shown) [drawing 3697], the inhibition at 20 µM at KRas G12D mutant protein was in the range of 51 to 75%; in assay [1] it was 76 to 100%.

Turning to `Cc1c(C(=O)N2CCN(c3ccccc3)CC2)sc2c(O)nc(-c3ccccn3)nc12` [drawing 3802], the inhibition at 20 µM (at Rac-1; in assay [1]) was 51 to 75% each time.

For `Oc1nc(-c2ccccn2)nc2c(-c3cc(C(F)(F)F)ccc3F)csc12` [drawing 3783], the inhibition at 20 µM at Rac-1 was in the range of 25 to 50%; in assay [1] it was 1 to 25%.

On to `Cc1sc2c(O)nc(-c3ccccn3)nc2c1C(=O)N1CCN(Cc2cccc(O)c2)CC1` [drawing 3829], for which the inhibition at 20 µM on KRas G12D mutant protein was in the range of 25 to 50%; in assay [1] it was 51 to 75%.

For the molecule `Oc1nc(-c2ccccn2)nc2c(-c3cncc(C(F)(F)F)c3)csc12` [drawing 3784], the inhibition at 20 µM on Rho-A lay in the range of 25 to 50%; in assay [1], 1 to 25%.

As for `CN(C)CCOc1cccc(-c2csc3c(O)nc(-c4ccccn4)nc23)c1` [drawing 3811], the inhibition at 20 µM (on KRas G12D mutant protein; in assay [1]) was 76 to 100% throughout.

Take `CC(C)COc1ccc(-c2csc3c(O)nc(-c4ccccn4)nc23)cn1` [drawing 3749]: the inhibition at 20 µM (at Rho-A; on KRas G12D mutant protein; in assay [1]) was 51 to 75% each time.

`O=C(Nc1nnc(-c2ccccn2)[nH]1)c1cccc(N2CCCS2(=O)=O)c1` [drawing 1021] gave an inhibition at 30 µM in assay [2] of 1 to 25%.

Turning to `CC(C)(C(=O)Nc1nc(-c2ccccn2)nc2sccc12)c1ccc(C#N)cc1` [drawing 1136], the inhibition at 30 µM in assay [2] lay in the range of 1 to 25%.

The molecule `O=C(CCc1nn[nH]n1)Nc1nc(-c2ccccn2)nc2sccc12` [drawing 1227] yielded an inhibition at 10 µM in assay [2] (* = tested at 10 μM) of 25 to 50%.

For `Oc1nc(-c2ccccn2)nc2[nH]cnc12` [drawing 1076], in assay [2], the inhibition at 30 µM lay in the range of 1 to 25%.
